Results as given in patent US8501786B2, “Hydroxymethyl pyrrolidines as beta 3 adrenergic receptor agonists” (Merck Sharp & Dohme Corp., priority 2009, dated 2013).
Where a name gives a salt, the structure may show the parent alone. Read-outs that look alike come from different tables or passages of the source.

Biological target: T1, human β3 adrenergic receptor (Homo sapiens, UniProt P13945)
T1 construct: stably transfected with the cloned β-adrenergic receptor (β1, β2 or β3); expressed in transfected cells; host or cells: Chinese hamster ovary (CHO) cells, stably transfected
T1 sequence (P13945 whole entry): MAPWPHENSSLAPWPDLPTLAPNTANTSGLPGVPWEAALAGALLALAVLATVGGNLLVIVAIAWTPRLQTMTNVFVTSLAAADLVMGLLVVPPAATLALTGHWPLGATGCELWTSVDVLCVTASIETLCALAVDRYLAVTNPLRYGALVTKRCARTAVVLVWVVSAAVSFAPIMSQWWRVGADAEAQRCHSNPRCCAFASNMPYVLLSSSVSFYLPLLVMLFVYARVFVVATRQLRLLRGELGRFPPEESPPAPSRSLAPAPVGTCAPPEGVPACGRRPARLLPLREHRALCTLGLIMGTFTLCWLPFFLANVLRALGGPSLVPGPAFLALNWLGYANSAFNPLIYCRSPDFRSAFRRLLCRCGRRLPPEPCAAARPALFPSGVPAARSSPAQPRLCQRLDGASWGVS
Assay: Functional assay: cAMP production (LANCE TR-FRET) in CHO cells stably transfected with cloned β3 adrenergic receptor
Type: cell-based

[1] = Table 2, cAMP production, CHO cells expressing human β3 AR, read-out: Human β3 functional
[2] = Table 3, cAMP production, CHO cells expressing human β3 AR, read-out: Human β3 functional
[3] = Table 6, human β3 functional activity given as ranges, read-out: Human β3 functional
[4] = Table 4, cAMP production, CHO cells expressing human β3 AR, read-out: Human β3 functional
[5] = Table 5, human β3 functional activity given as ranges, read-out: Human β3 functional

| SMILES | EC50 [1] [nM] | EC50 [2] [nM] | also measured |
| --- | --- | --- | --- |
| O=C(Cn1nccn1)Nc1ccc(CC2CC[C@H]([C@H](O)c3cccnc3)N2)cc1 (stereo partly shown) [Example 39] | 11 to 100 |  |  |
| CC(F)(C(=O)Nc1ccc(CC2CC[C@H]([C@H](O)c3cccnc3)N2)cc1)c1ccccn1 (single isomer, unassigned) [Example 147] |  | 101 to 1000 |  |
| COc1cc2ncn(CC(=O)Nc3ccc(CC4CC[C@H]([C@H](O)c5cccnc5)N4)cc3)c(=O)c2cc1OC (stereo partly shown) [Example 51] | 1 to 10 |  |  |
| CC(NS(=O)(=O)c1ccccc1F)C(=O)Nc1ccc(C[C@@H]2CC[C@H]([C@H](O)c3cccnc3)N2)cc1 (stereo partly shown) [Example 256] |  |  | EC50 [3]: 11 to 100 nM |
| CC1=NN(CC(=O)Nc2ccc(CC3CC[C@H]([C@H](O)c4cccnc4)N3)cc2)C(=O)C1 (stereo partly shown) [Example 70] | 11 to 100 |  |  |
| Nc1nc(CC(=O)Nc2ccc(C[C@@H]3CC[C@H]([C@H](O)c4cccnc4)N3)cc2)cs1 [Example 1, 2-2-Amino-1,3-thiazol-4-yl)-N-[4-({(2S,5R)-5-[(R)-hydroxy(pyridin-3-yl)methyl]pyrrolidin-2-yl}methyl)phenyl]acetamide, trfluoroacetic acid salt] |  |  | EC50 (cAMP production, CHO cells expressing human β3 AR, read-out: human Beta-3 agonist functional activity): < 10 nM |
| CN1CCCN(CC(=O)Nc2ccc(CC3CC[C@H]([C@H](O)c4cccnc4)N3)cc2)C1=O (stereo partly shown) [Example 87] | 101 to 1000 |  |  |
| CC(NS(=O)(=O)c1ccccc1)C(=O)Nc1ccc(C[C@@H]2CC[C@H]([C@H](O)c3cccnc3)N2)cc1 (stereo partly shown) [Example 257] |  |  | EC50 [3]: 11 to 100 nM |
| O=C(Cn1cnc2ccsc2c1=O)Nc1ccc(CC2CC[C@H]([C@H](O)c3cccnc3)N2)cc1 (stereo partly shown) [Example 75] | 1 to 10 |  |  |
| O=S(=O)(Nc1ccc(CC2CC[C@H]([C@H](O)c3cccnc3)N2)cc1)c1ccc(-c2cnco2)cc1 (stereo partly shown) [Example 232] |  |  | EC50 [4]: 11 to 100 nM |
| O=S(=O)(Nc1ccc(CC2CC[C@H]([C@H](O)c3cccnc3)N2)cc1)c1ccc(-c2nc(-c3ccc(C(F)(F)F)cc3)cs2)cc1 (stereo partly shown) [Example 223] |  |  | EC50 [4]: 1 to 10 nM |
| O=C(CN1CCCOC1=O)Nc1ccc(CC2CC[C@H]([C@H](O)c3cccnc3)N2)cc1 (stereo partly shown) [Example 85] | 11 to 100 |  |  |
| O=C(Nc1ccc(CC2CC[C@H]([C@H](O)c3cccnc3)N2)cc1)C1CCc2nccc(=O)n21 (single isomer, unassigned) [Example 160] |  | 1 to 10 |  |
| O=S(=O)(Nc1ccc(CC2CC[C@H]([C@H](O)c3cccnc3)N2)cc1)c1ccc2ccccc2c1 (stereo partly shown) [Example 225] |  |  | EC50 [4]: 11 to 100 nM |
| CC(C(=O)Nc1ccc(CC2CC[C@H]([C@H](O)c3cccnc3)N2)cc1)n1nccn1 (single isomer, unassigned) [Example 143] |  | 1 to 10 |  |
| O=C(Cn1c(=O)[nH]c(=O)c2ccccc21)Nc1ccc(CC2CC[C@H]([C@H](O)c3cccnc3)N2)cc1 (stereo partly shown) [Example 57] | 1 to 10 |  |  |
| O=S(=O)(Nc1ccc(CC2CC[C@H]([C@H](O)c3cccnc3)N2)cc1)c1ccc2ncsc2c1 (stereo partly shown) [Example 231] |  |  | EC50 [4]: 101 to 1000 nM |
| CC(C(=O)Nc1ccc(CC2CC[C@H]([C@H](O)c3cccnc3)N2)cc1)n1cncn1 (single isomer, unassigned) [Example 141] |  | 1 to 10 |  |
| CC(C(=O)Nc1ccc(CC2CC[C@H]([C@H](O)c3cccnc3)N2)cc1)c1csc(C(F)(F)F)n1 (single isomer, unassigned) [Example 111] |  | 11 to 100 |  |
| O=C(CN1CCSC1=O)Nc1ccc(CC2CC[C@H]([C@H](O)c3cccnc3)N2)cc1 (stereo partly shown) [Example 45] | 1 to 10 |  |  |
| O=C(Nc1ccc(CC2CC[C@H]([C@H](O)c3cccnc3)N2)cc1)c1ccccc1-c1ncc[nH]1 (stereo partly shown) [Example 33] | 11 to 100 |  |  |
| O=C(Cc1cnccn1)Nc1ccc(CC2CC[C@H]([C@H](O)c3cccnc3)N2)cc1 (stereo partly shown) [Example 41] | 11 to 100 |  |  |
| O=C(Nc1ccc(CC2CC[C@H]([C@H](O)c3cccnc3)N2)cc1)c1ccccc1-n1nccn1 (stereo partly shown) [Example 35] | 11 to 100 |  |  |
| O=C(Cc1c(-c2ccccc2)[nH]c2ccccc12)Nc1ccc(CC2CC[C@H]([C@H](O)c3cccnc3)N2)cc1 (stereo partly shown) [Example 16] | 11 to 100 |  |  |

| SMILES | EC50 [1] [nM] | EC50 [2] [nM] | also measured |
| --- | --- | --- | --- |
| O=C(Nc1ccc(CC2CC[C@H]([C@H](O)c3cccnc3)N2)cc1Br)C1CCc2sc(I)nc21 (single isomer, unassigned) [Example 243] |  |  | EC50 [5]: 101 to 1000 nM |
| O=C(Cc1nnn[nH]1)Nc1ccc(CC2CC[C@H]([C@H](O)c3cccnc3)N2)cc1 (stereo partly shown) [Example 55] | 11 to 100 |  |  |
| COc1ncncc1CC(=O)Nc1ccc(CC2CC[C@H]([C@H](O)c3cccnc3)N2)cc1 (stereo partly shown) [Example 48] | 11 to 100 |  |  |
| Cc1ccn(C(C)C(=O)Nc2ccc(CC3CC[C@H]([C@H](O)c4cccnc4)N3)cc2)n1 (single isomer, unassigned) [Example 100] |  | 1000 to 3000 |  |
| CC(C(=O)Nc1ccc(CC2CC[C@H]([C@H](O)c3cccnc3)N2)cc1)n1nccn1 (single isomer, unassigned) [Example 142] |  | 1 to 10 |  |
| O=C(Cc1csc(-c2ccccn2)n1)Nc1ccc(CC2CC[C@H]([C@H](O)c3cccnc3)N2)cc1 (stereo partly shown) [Example 81] | 11 to 100 |  |  |
| CC(C(=O)Nc1ccc(C[C@@H]2CC[C@H]([C@H](O)c3cccnc3)N2)cc1)n1cccnc1=O (single isomer, unassigned) [Example 167] |  | 1 to 10 |  |
| O=C(Cc1csc(-c2cccnc2)n1)Nc1ccc(CC2CC[C@H]([C@H](O)c3cccnc3)N2)cc1 (stereo partly shown) [Example 82] | 1 to 10 |  |  |
| Cc1[nH]nc2c1CCC2C(=O)Nc1ccc(CC2CC[C@H]([C@H](O)c3cccnc3)N2)cc1 (single isomer, unassigned) [Example 155] |  | 11 to 100 |  |
| CC(=O)NC(C)C(=O)Nc1ccc(C[C@@H]2CC[C@H]([C@H](O)c3cccnc3)N2)cc1 (stereo partly shown) [Example 249] |  |  | EC50 [3]: 11 to 100 nM |
| Cc1nc2ccccc2c(=O)n1CC(=O)Nc1ccc(CC2CC[C@H]([C@H](O)c3cccnc3)N2)cc1 (stereo partly shown) [Example 11] | 1 to 10 |  |  |
| O=C(Cc1c(F)cccc1F)Nc1ccc(CC2CC[C@H]([C@H](O)c3cccnc3)N2)cc1 (stereo partly shown) [Example 78] | 1 to 10 |  |  |
| Nc1nc(CC(=O)Nc2ccc(CC3CC[C@H]([C@H](O)c4cccnc4)N3)cc2Br)cs1 (stereo partly shown) [Example 242] |  |  | EC50 [5]: 101 to 1000 nM |
| Cc1nc(CC(=O)Nc2ccc(CC3CC[C@H]([C@H](O)c4cccnc4)N3)cc2)cs1 (stereo partly shown) [Example 15] | 11 to 100 |  |  |
| COc1cccc(N2CCC[C@H]2C(=O)Nc2ccc(CC3CC[C@H]([C@H](O)c4cccnc4)N3)cc2)c1 (stereo partly shown) [Example 31] | 1 to 10 |  |  |
| O=C(CN1CCCCC1=O)Nc1ccc(CC2CC[C@H]([C@H](O)c3cccnc3)N2)cc1 (stereo partly shown) [Example 42] | 11 to 100 |  |  |
| Cc1nc(C(C)C(=O)Nc2ccc(CC3CC[C@H]([C@H](O)c4cccnc4)N3)cc2)c(C)s1 (single isomer, unassigned) [Example 103] |  | 101 to 1000 |  |
| Cc1nonc1CC(=O)Nc1ccc(CC2CC[C@H]([C@H](O)c3cccnc3)N2)cc1 (stereo partly shown) [Example 68] | 11 to 100 |  |  |
| COCc1nc2c(s1)CCC2C(=O)Nc1ccc(CC2CC[C@H]([C@H](O)c3cccnc3)N2)cc1 (single isomer, unassigned) [Example 125] |  | 11 to 100 |  |
| Cc1cn(CC(=O)Nc2ccc(CC3CC[C@H]([C@H](O)c4cccnc4)N3)cc2)nn1 (stereo partly shown) [Example 46] | 11 to 100 |  |  |
| O=C(Cn1ncc2ccccc21)Nc1ccc(CC2CC[C@H]([C@H](O)c3cccnc3)N2)cc1 (stereo partly shown) [Example 5] | 11 to 100 |  |  |
| O=c1ccc2cc(S(=O)(=O)Nc3ccc(CC4CC[C@H]([C@H](O)c5cccnc5)N4)cc3)ccc2o1 (stereo partly shown) [Example 234] |  |  | EC50 [4]: 101 to 1000 nM |
| Cc1nc(C(C)C(=O)Nc2ccc(CC3CC[C@H]([C@H](O)c4cccnc4)N3)cc2)cs1 (single isomer, unassigned) [Example 102] |  | 101 to 1000 |  |

Continued, in another order:

| EC50 [1] [nM] | EC50 [2] [nM] | SMILES | also measured |
| --- | --- | --- | --- |
|  | 1 to 10 | CCC(C(=O)Nc1ccc(CC2CC[C@H]([C@H](O)c3cccnc3)N2)cc1)c1cscn1 (single isomer, unassigned) [Example 204] |  |
|  | 1 to 10 | O=C(Nc1ccc(CC2CC[C@H]([C@H](O)c3cccnc3)N2)cc1)C1CCc2sc(CO)nc21 (single isomer, unassigned) [Example 188] |  |
|  | 101 to 1000 | COC(=O)c1cnnn1C(C)C(=O)Nc1ccc(CC2CC[C@H]([C@H](O)c3cccnc3)N2)cc1 (single isomer, unassigned) [Example 209] |  |
|  | 1 to 10 | COCCC(C(=O)Nc1ccc(CC2CC[C@H]([C@H](O)c3cccnc3)N2)cc1)n1cccn1 (single isomer, unassigned) [Example 221] |  |
|  | 11 to 100 | O=C(Nc1ccc(CC2CC[C@H]([C@H](O)c3cccnc3)N2)cc1)C1CCc2nc3ccccc3c(=O)n21 (single isomer, unassigned) [Example 192] |  |
|  | 1 to 10 | O=C(Nc1ccc(CC2CC[C@H]([C@H](O)c3cccnc3)N2)cc1)C1CCc2nc3ccccc3c(=O)n21 (single isomer, unassigned) [Example 193] |  |
|  | 11 to 100 | CC(C(=O)Nc1ccc(CC2CC[C@H]([C@H](O)c3cccnc3)N2)cc1)n1nncc1C(=O)O (single isomer, unassigned) [Example 207] |  |
|  | 1 to 10 | CC(C(=O)Nc1ccc(CC2CC[C@H]([C@H](O)c3cccnc3)N2)cc1)c1nccs1 (single isomer, unassigned) [Example 175] |  |
|  | 11 to 100 | Cc1nnc2c(C(C)C(=O)Nc3ccc(CC4CC[C@H]([C@H](O)c5cccnc5)N4)cc3)cccn12 (single isomer, unassigned) [Example 217] |  |
|  | 101 to 1000 | Cc1cnnn1C(C)C(=O)Nc1ccc(CC2CC[C@H]([C@H](O)c3cccnc3)N2)cc1 (single isomer, unassigned) [Example 212] |  |
|  | 11 to 100 | Cc1cn(C(C)C(=O)Nc2ccc(CC3CC[C@H]([C@H](O)c4cccnc4)N3)cc2)nn1 (single isomer, unassigned) [Example 211] |  |
|  | < 1 | CC(C(=O)Nc1ccc(CC2CC[C@H]([C@H](O)c3cccnc3)N2)cc1)c1cscn1 (single isomer, unassigned) [Example 195] |  |
|  | 1 to 10 | CCC(C(=O)Nc1ccc(CC2CC[C@H]([C@H](O)c3cccnc3)N2)cc1)n1cccn1 (single isomer, unassigned) [Example 185] |  |
|  | 11 to 100 | Cc1nnc2n1CCC2C(=O)Nc1ccc(CC2CC[C@H]([C@H](O)c3cccnc3)N2)cc1 (single isomer, unassigned) [Example 171] |  |
